This note sets out measurements from US9957270B2, “Fused pyrimidine-based hydroxamate derivatives” (Agency for Science, Technology and Research, priority 2014, dated 2018).

For orientation: EC50 means the concentration needed to bring the measured effect to its halfway point.

For experiment [1], the target named is T1, p110α(E545K)/p85α (Homo sapiens, UniProt P42336, E545K).
T1 construct: purchased SignalChem P27-15H
In words: Kinase enzyme assay (ADP-Glo), PI3Kα (E545K). It counts as biochemical. To be noted: read-out: In Vitro Enzymatic IC50 PI3Kα (E545K).

Experiment [2] deals with T2, p110α(H1047R)/p85α (Homo sapiens, UniProt P42336, H1047R).
T2 construct: purchased BPS 40641
T2 sequence (P42336 whole entry H1047R): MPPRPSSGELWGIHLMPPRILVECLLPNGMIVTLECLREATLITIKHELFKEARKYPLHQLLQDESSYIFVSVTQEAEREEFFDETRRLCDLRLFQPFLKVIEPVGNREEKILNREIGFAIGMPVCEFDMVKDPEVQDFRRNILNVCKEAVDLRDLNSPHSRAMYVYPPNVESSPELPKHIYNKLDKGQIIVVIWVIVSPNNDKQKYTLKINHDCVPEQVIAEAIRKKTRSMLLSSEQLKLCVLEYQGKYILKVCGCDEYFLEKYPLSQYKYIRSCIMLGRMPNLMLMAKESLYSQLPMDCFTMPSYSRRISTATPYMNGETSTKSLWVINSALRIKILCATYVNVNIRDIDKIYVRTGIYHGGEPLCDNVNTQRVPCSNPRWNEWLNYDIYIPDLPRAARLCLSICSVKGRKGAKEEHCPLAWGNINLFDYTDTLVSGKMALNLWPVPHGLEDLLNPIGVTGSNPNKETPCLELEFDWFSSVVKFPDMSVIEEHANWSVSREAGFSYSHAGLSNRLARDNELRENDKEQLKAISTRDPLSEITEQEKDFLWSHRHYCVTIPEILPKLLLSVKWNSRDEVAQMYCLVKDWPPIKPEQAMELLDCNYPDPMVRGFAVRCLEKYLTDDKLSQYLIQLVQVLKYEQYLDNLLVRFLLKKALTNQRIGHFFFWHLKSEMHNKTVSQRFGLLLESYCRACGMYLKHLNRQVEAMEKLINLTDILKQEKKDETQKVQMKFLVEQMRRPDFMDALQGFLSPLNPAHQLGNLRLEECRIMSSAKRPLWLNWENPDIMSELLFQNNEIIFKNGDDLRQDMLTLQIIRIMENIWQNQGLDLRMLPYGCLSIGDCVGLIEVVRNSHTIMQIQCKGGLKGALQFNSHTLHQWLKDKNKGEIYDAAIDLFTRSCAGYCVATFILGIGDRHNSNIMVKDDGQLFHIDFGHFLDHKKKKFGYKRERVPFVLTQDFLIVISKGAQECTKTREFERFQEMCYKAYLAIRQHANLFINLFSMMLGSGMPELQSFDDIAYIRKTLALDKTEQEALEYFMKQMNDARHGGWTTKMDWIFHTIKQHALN
T2 sequence (P27986 whole entry partner): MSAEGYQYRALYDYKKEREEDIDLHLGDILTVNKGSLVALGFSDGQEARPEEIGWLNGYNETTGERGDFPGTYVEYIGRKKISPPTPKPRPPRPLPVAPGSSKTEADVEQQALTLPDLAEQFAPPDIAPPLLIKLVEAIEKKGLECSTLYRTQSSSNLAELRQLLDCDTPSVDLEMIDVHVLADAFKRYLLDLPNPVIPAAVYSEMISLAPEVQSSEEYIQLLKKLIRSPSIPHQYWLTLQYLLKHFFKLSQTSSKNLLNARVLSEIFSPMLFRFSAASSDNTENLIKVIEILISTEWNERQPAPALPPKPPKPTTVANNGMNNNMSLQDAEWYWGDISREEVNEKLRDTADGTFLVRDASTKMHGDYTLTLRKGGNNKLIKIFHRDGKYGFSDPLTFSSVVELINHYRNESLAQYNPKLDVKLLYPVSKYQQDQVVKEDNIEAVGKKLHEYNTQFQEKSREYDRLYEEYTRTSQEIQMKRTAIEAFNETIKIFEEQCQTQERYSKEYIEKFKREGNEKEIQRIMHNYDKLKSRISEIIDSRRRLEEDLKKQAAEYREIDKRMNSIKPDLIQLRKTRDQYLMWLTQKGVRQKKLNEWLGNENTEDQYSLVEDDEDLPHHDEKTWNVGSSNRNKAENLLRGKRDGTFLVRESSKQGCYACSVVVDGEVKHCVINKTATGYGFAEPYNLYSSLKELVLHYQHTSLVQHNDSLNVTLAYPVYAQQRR
In words: Kinase enzyme assay (ADP-Glo), PI3Kα (H1047R). It is filed as biochemical. The conditions noted are these: read-out: In Vitro Enzymatic IC50 PI3Kα (H1047R).

For experiment [3], the system named is MV-4-11 cells. In words: Caspase activity assay, MV-4-11 cells. To be noted: MV-4-11 cells; for EC50: maximal activity at 24 h, read-out: EC50 induction of caspase activity. It counts as cell-based, human. As for the experimental part:
(§1) Cells are cultivated and treated with test compounds in 96-well plates as described in the above Cell Culture and Anti-Proliferative Assays section. […] The incubation time can be extended up to overnight (18 h) if the Caspase activity is low. Staurosporine is used as positive control.
(§2) Y Axis is expressed as Mean±SD if applicable.

In experiment [4] the test system is PC-3 cells. In words: Caspase activity assay, PC-3 cells. It is filed as cell-based, human. The conditions noted are these: maximal caspase activity at 48 h. The protocol: as §1, §2
The subject of experiment [5] is MV-4-11 cells. In words: Cell viability/cytotoxicity assay (CytoTox-Glo), MV-4-11 cells. It counts as cell-based, human. The conditions noted are these: MV-4-11 cells, 48 h, CytoTox-Glo, read-out: cell death potency EC50. The protocol:
Cells are cultivated and treated with test compounds in 96-well plates as described in the above Cell Culture and Anti-Proliferative Assays section, the content of dead cells and viable cells are measured using CytoTox-Glo™ Cytotoxicity Assay kit (Promega) per manufacture's protocol. Briefly, CytoTox-Glo™ Cytotoxicity Assay Reagent (48 μL/well) is added to the cells in 96-well plate and the luminescent signals are recorded using a BioTek Synergy H4 reader, then Lysis Reagent (48 μL/well) is added and the luminescent signals derived from both dead and viable cells are recorded. Viability can be calculated by subtracting the luminescent signal resulting from experimental cell death from total luminescent values. Staurosporine is used as positive control.
Fold of cell death of treated vs untreated was monitored at different time points. […] Y Axis is expressed as Mean±SD if applicable.

Experiment [6] deals with PLC/PRF/5. In words: cells. The conditions noted are these: Homo sapiens, PLC-PRF-5, read-out: In Vitro Cellular IC50 PLC/PRF/5.
Method: (§3) Cells were cultivated at 37° C., 5% CO2 in media containing 10% FBS and 2 mM glutamine Cells were routinely monitored with MycoAlert™ PLUS Mycoplasma Detection Kit (Lonza Walkersville, Inc.) to make sure they were mycoplasma free. Antibiotics (100 U/mL of penicillin and 100 μg/mL of streptomycin) were only added to the media used for compound dilution and cells in 96-well assay plates.
(§4) For a typical screening experiment, cells (100 μL/well) are inoculated into 96 well microtiter plates at plating densities ranging from 2,000 to 30,000 cells/well depending on the doubling time of individual cell lines and assay linearity. […] Suspension cells are treated with test compounds immediately after cell inoculation.
(§5) Test compounds are serially diluted (3-fold or 4-fold, 8-concentration) using the same media and added to the plates (15 to 25 μL/well). After 72 h of cultivation, the plates are assayed for cell cytotoxicity/viability by using the following two methods.
(§6) Cells in plates are fixed with cold trichloroacetic acid (TCA) (50% w/v in DI water, 1/4 volume of the medium in each well), and incubated at 4° C. for 1 h (adherent cells) or 2 h (suspension cells). The plates are washed 5 times (tap water×3, DI water×2) and air-dried. SRB solution 0.4% (w/v) in 1% acetic acid is added to each well (60 μL/well) and the plates are incubated at room temperature for 30 min, then washed with 1% acetic acid solution 4 times, and air-dried.
(§7) The plates are added CellTiter-Glo® Reagent (95 μL/well) and read the luminescence on a BioTek H4 reader per manufacture's protocol.
(§8) The raw data are processed using BioTek's Software Gen5 (v2.03.01) to generate inhibitory IC50 values.
In experiment [7] the target is HDAC1 (Homo sapiens, UniProt Q13547). In words: HDAC enzyme assay, recombinant HDAC1.
HDAC1, sequence (Q13547 whole entry): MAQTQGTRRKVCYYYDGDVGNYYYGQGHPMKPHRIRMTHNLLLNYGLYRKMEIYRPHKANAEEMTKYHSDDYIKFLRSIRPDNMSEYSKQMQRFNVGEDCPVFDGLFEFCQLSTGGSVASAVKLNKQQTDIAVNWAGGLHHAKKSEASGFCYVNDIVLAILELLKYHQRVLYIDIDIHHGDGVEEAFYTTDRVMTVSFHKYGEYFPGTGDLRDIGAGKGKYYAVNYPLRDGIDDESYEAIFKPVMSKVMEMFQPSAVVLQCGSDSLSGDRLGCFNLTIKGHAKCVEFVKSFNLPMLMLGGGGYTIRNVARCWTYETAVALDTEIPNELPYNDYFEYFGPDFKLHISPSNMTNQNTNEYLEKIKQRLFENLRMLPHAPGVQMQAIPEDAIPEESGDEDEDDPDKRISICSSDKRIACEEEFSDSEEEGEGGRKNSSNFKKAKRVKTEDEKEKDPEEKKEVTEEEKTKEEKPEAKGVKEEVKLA
Experiment [8] has as its target T3, HDAC6 (Homo sapiens, UniProt Q9UBN7).
T3 sequence (Q9UBN7 1-1215): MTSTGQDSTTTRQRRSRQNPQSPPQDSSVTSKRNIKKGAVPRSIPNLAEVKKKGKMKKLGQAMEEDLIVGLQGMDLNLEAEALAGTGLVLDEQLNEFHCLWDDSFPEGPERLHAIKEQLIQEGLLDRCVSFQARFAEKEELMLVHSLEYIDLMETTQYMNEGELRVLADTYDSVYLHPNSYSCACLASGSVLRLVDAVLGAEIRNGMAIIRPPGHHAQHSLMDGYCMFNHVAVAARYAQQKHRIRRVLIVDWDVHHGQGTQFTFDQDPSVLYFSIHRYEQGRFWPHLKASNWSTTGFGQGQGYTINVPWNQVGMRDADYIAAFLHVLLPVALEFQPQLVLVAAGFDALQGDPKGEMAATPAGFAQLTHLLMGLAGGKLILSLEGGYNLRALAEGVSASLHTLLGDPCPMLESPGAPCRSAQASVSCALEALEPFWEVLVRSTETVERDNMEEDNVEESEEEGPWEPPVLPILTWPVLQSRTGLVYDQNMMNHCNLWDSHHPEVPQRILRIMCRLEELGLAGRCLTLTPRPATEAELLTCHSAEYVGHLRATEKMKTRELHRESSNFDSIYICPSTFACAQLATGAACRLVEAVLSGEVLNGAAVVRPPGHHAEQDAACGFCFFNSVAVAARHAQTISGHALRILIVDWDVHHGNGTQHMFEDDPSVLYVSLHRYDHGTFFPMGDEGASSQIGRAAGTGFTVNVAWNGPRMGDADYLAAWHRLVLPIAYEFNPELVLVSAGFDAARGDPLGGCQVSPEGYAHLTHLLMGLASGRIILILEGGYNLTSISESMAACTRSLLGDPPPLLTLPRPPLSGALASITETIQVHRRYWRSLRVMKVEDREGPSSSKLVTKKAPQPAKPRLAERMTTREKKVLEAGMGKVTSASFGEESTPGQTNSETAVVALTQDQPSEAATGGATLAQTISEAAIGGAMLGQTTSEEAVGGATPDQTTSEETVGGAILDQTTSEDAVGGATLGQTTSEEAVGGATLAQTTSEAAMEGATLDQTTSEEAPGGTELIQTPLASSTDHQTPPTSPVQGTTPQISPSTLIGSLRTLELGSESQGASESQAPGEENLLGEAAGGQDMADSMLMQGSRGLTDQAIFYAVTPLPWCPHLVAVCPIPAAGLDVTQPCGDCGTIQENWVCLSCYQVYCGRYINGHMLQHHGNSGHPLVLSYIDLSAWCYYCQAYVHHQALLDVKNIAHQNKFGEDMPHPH
In words: HDAC enzyme assay, recombinant HDAC6.

Experiment [9] deals with HDAC (HeLa nuclear extracts). In words: HDAC enzyme assay, HeLa nuclear extracts. To be noted: read-out: In Vitro Enzymatic IC50 HDAC (HeLa).
For experiment [10], the system named is Raji. In words: Anti-proliferative assay (cellular IC50), Raji. The conditions noted are these: Homo sapiens, read-out: In Vitro Cellular IC50 Raji.
Method: as §3, §4, §5, §6, §7, §8
Experiment [11] has as its system HuH-7. In words: Anti-proliferative assay (cellular IC50), HuH-7. The conditions noted are these: Homo sapiens, Huh-7, read-out: In Vitro Cellular IC50 HuH-7.
Method: as §3, §4, §5, §6, §7, §8
The test system of experiment [12] is Daudi. In words: Anti-proliferative assay (cellular IC50), Daudi. To be noted: Homo sapiens, read-out: In Vitro Cellular IC50 Daudi.
Method: as §3, §4, §5, §6, §7, §8
Experiment [13] concerns A-431. In words: Anti-proliferative assay (cellular IC50), A-431. The conditions noted are these: Homo sapiens, A-431, read-out: In Vitro Cellular IC50 A-431.
Method: as §3, §4, §5, §6, §7, §8
Experiment [14] deals with HCCLM3. In words: Anti-proliferative assay (cellular IC50), HCCLM3. The conditions noted are these: Homo sapiens, HCCLM3, read-out: In Vitro Cellular IC50 HCCLM3.
Method: as §3, §4, §5, §6, §7, §8
Experiment [15] relates to NCI-H460. In words: Anti-proliferative assay (cellular IC50), NCI-H460. The conditions noted are these: Homo sapiens, NCI-H460, read-out: In Vitro Cellular IC50 NCI-H460.
Method: as §3, §4, §5, §6, §7, §8

Bounds are passed on as bounds.

T1 sequence (P42336 whole entry E545K): as the sequence (P42336 whole entry H1047R) above, with E545K, R1047H counted along it
T1 sequence (P27986 whole entry partner): as the sequence (P27986 whole entry partner) above

Take `CC(C)n1cnc2c(-c3cccc(OCCCC(=O)NO)c3)nc(N3CCOCC3)nc21` [compound 1]: the IC50 was 1 to 10 µM in experiment [1]; 1 to 10 µM in experiment [2]; 0.5 to 2 µM in experiment [6]; 0.01 to 0.1 µM in experiment [7]; 0.01 to 0.1 µM in experiment [8]; 0.01 to 0.1 µM in experiment [9]. Also, the IC50 in experiment [10] is 0.5 to 2 µM; in experiment [11], 0.5 to 2 µM; in [12] it was under 0.5 µM; in experiment [13] it was 2 to 10 µM; in experiment [14], 2 to 10 µM; in experiment [15], 0.5 to 2 µM. Further, the “Induction of caspase activity (comparison)” value in [3] and in [4] was “more potent than vorinostat” in each case. For the same compound, the values for the EC50 in experiment [3] and in [5] were 0.52 µM and 0.19 µM, respectively.
Consider `CS(=O)(=O)N1CCN(Cc2cc3nc(-c4cccc5[nH]ncc45)nc(N4CCOCC4)c3s2)CC1` [GDC-0941, reference compound], for which the EC50 in [3] (Homo sapiens, MV4-11) amounted to 12.7 µM; in experiment [5] (Homo sapiens, MV4-11), 2.75 µM. Further, the “Induction of caspase activity (comparison)” value was “very weak activity and potency” in experiment [3]; “very weak activity” in experiment [4]. The IC50 in [6] is 2 to 10 µM; in experiment [10], 2 to 10 µM; in experiment [11], 0.5 to 2 µM; in experiment [12] it was under 0.5 µM; in experiment [13], under 0.5 µM; in experiment [14] it was 0.5 to 2 µM. The IC50 in [15] is under 0.5 µM.
As to `CCn1c(CN(C)Cc2ccc(C(=O)NO)cc2)nc2c(N3CCOCC3)nc(-c3cnc(N)nc3)nc21` [compound 7], the IC50 in [1] was in the range of 0.01 to 0.1 µM; in [2], 0.01 to 0.1 µM; in [7], 0.01 to 0.1 µM; in experiment [8], 0.01 to 0.1 µM; in experiment [9] it was 0.1 to 1 µM.
